The record followed here is patent publication US12065427B2, “Heterocyclic compounds capable of activating STING” (BOEHRINGER INGELHEIM INTERNATIONAL GMBH, priority 2021, dated 2024).

One series deals with T1, STING HAQ-variant (Homo sapiens, UniProt Q86WV6, G230A/H232R/R293Q/R71H).
T1 construct: parental THP1-Blue™ ISG cell lines (which express endogenously HAQ); host or cells: THP1-Blue ISG (parental, endogenous HAQ) or STING-KO clone re-transduced with HAQ (MSCV-ires-GFP-Blasti)
Nature of the series: IRF-inducible SEAP reporter assay in THP1-Blue ISG cells, STING HAQ-variant. It counts as cell-based. The note with it: STING HAQ-variant (parental or re-introduced), 24 hours incubation. From the text: (§1) In Vitro Cytokine Induction Measured Via Activation of an Interferon Regulatory Factor Inducible Reporter Gene
(§2) Activation of the STING protein expressed in cell lines results in an increase of interferon production. By the stable integration of an interferon regulatory factor (IRF)-inducible SEAP gene (secreted embryonic alkaline phosphatase) reporter construct the functional interferon signaling pathway can be monitored. Using Invivogen's THP1-Blue™ ISG colorimetric enzyme assay and a suitable optical density (OD) reader the activity of SEAP can be detected and quantified. This technique could be used to characterize pharmacological modification of the STING pathway.
(§3) Several single nucleotide polymorphisms have been identified in the human STING gene. To determine the activity of the above described compounds, THP1-Blue™ ISG reporter cell lines expressing the different human STING variants have been generated. To do so, the endogenous human STING was first deleted using the CRISPR/CAS9 system: THP1-Blue ISG cells were electroporated with ALL-IN-ONE CRISPR plasmids targeting the STING gene (purchased from Sigma encoding the gRNA and GFP as a reporter gene for successful transduction). GFP positive cells then were sorted 24 h post transfection and expanded. Cells were then dispersed in semisolid methocel medium to allow single cell clone isolations. Clones were then screened for cGAMP responsiveness using the Quanti-Blue™ reporter assay. Non-responsive clones were subsequently analysed for STING loss by western blotting and sequencing of the STING locus.
(§4) For the overexpression of the human STING variants, a confirmed THP1-Blue™ ISG hSTING KO clone was transduced with individual retroviral plasmids (MSCV-ires-GFP-Blasti) encoding the allelic variants of hSTING (WT (H232R), HAQ, R232H, AQ and R293Q). Transduced cells were sorted for different levels of GFP fluorescence and STING allele expression was analysed by western blot.
(§5) Measurements of SEAP activity were performed in THP1-Blue™ ISG cells stably expressing the different human STING isoforms and the IRF-inducible SEAP reporter construct. Cells were cultivated in RPMI1640 medium with 10% fetal calf serum, 50 μg/ml Penicillin-Streptomycin, 100 μg/ml Zeocin, and 100 μg/ml Normocin in a 37°, 95% humidity and 5% CO2 incubator.
(§6) In preparation for the assay, the cells were distributed into the assay plates with a density of 10000 cells/15 μL per well. Compounds were prepared by an 8 point serial dilution in 50% aqueous DMSO and a final dilution step into medium to ensure a final DMSO concentration of 0.5% in the assay. 5 μL of diluted compounds were added to the plates, followed by a 24 hours incubation at 37° C.
(§7) At the day of the assay, 75 μl per well of Quanti-Blue™ reagent was added to all wells of the plate and the plate was incubated another 30 minutes at 37° C. The OD at 620 nm was measured on the EnVision reader (PerkinElmer).
(§8) EC50 values and Hill slopes were derived from 8-point four parametric non-linear curve fittings with the Megalab software (Boehringer Ingelheim) using the OD at 620 nm.
(§9) Data of EC50 values can be found in tables 2a-2e.
Data of EC50 values on STING HAQ-variant can be found in table 2a. Shown data below were either derived from the parental THP1-Blue™ ISG cell lines (which express endogenously HAQ) or from genetically engineered THP1-Blue™ ISG cell lines in which first STING has been knocked-out and the HAQ specific STING isoform has been re-introduced as described above.

In a further series the target is T2, STING AQ-variant (Homo sapiens, UniProt Q86WV6, G230A/H232R/R293Q).
T2 construct: expressed in transfected cells; host or cells: THP1-Blue ISG hSTING KO clone, retroviral MSCV-ires-GFP-Blasti
T2 sequence (Q86WV6 whole entry G230A/H232R/R293Q): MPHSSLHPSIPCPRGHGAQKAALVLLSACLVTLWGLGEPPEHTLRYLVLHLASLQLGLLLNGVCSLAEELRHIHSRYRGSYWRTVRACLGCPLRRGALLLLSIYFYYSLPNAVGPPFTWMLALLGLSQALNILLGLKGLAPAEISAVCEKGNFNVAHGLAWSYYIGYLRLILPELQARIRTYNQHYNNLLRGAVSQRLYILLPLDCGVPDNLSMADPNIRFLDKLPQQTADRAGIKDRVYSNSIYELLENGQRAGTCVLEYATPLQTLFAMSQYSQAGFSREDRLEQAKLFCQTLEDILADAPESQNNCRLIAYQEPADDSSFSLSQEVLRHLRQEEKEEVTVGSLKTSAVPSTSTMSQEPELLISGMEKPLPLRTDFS
Nature of the series: IRF-inducible SEAP reporter assay in THP1-Blue ISG cells, STING AQ-variant. Conditions: 24 hours incubation. It counts as cell-based.
From the text: as §1, §2, §3, §4, §5, §6, §7, §8, §9
Data of EC50 values on STING AQ-variant can be found in table 2e: […]

The next series can be described thus: in vitro. The note with it: human, Caco-2, pH 7.4.
The next series addresses T3, STING H232R-variant (Homo sapiens, UniProt Q86WV6, H232R).
T3 construct: expressed in transfected cells; host or cells: THP1-Blue ISG hSTING KO clone, retroviral MSCV-ires-GFP-Blasti
Nature of the series: IRF-inducible SEAP reporter assay in THP1-Blue ISG cells, STING H232R-variant. It counts as cell-based. The note with it: STING H232R-variant (WT), 24 hours incubation.
From the text: as §1, §2, §3, §4, §5, §6, §7, §8, §9
Data of EC50 values on STING H232R-variant can be found in table 2b: […]

In series [1] the test system is Human STING (hSTING, residues 155-341). Nature of the series: Interaction with hSTING as determined by Differential Scanning Fluorimetry (DSF). In kind it is binding. The note with it: 100 μM test compounds, 5 μM target protein. The protocol:
Interaction with hSTING as Determined by Differential Scanning Fluorimetry (DSF)
In DSF, the temperature at which a protein unfolds, also called the melting temperature Tm, is measured by changes in fluorescence of a dye that binds to the hydrophobic parts of the protein. Tm shifts upon binding of a small molecule are correlated with the binding affinity of this small molecule. As target protein, Human STING (hSTING, residues 155-341, MW: 21578.4 Da; protein stock solution: c=1302 μM stock solution in 20 mM Tris, 100 mM NaCl, 2 mM TCEP pH 8.8) was used, as assay buffer 20 mM Tris, 150 mM NaCI pH7.5 was added where and as necessary.
Final concentrations of components in assay: 100 μM test compounds, 5 μM target protein, “5×” SYPR Orange (from stock solution SYPRO orange solution in DMSO (invitrogen cat.-no. S6650-500 ul), concentration “5000×”)
1) Dilutions of compound stock solutions (10 mM in DMSO) were prepared in assay buffer (20 mM Tris, 150 mM NaCl; pH7.5)
2) 5 μl fluorescent dye stock solution (5000×SYPRO Orange in DMSO) was mixed with 19 μl target protein (1302 μM) and 976 μl assay buffer.
3) 2 μl of this protein-dye-mixture (25×SYPRO Orange and 25 μM Protein) was added to 8 μl diluted compound solution as prepared in step 1. Final volume was 10 μl.
4) With every 20 compounds, two negative controls were measured.
5) The plates were prepared for duplicate measurement and centrifuged for 2 min at 1000 g.
6) For the measurement, a CFX384 Real-Time System (Bio-Rad) was used. The run consisted of 140 cycles with 0.5° C./cycle (temperature ramp 15 s/cycle, 25° C. to 95° C.).
Data analysis: The melting curves were processed in Bio-Rad CFX Manager. Peak type was set to “negative”. Two replicates of TM (melting temperature) measurements were averaged and the standard deviation was calculated.

Another series addresses T4, STING R232H-variant (Homo sapiens, UniProt Q86WV6).
T4 construct: expressed in transfected cells; host or cells: THP1-Blue ISG hSTING KO clone, retroviral MSCV-ires-GFP-Blasti
Nature of the series: IRF-inducible SEAP reporter assay in THP1-Blue ISG cells, STING R232H-variant. The note with it: 24 hours incubation. It counts as cell-based.
From the text: as §1, §2, §3, §4, §5, §6, §7, §8, §9
Data of EC50 values on STING R232H-variant can be found in table 2c: […]

The target of a further series is T5, STING R293Q-variant (Homo sapiens, UniProt Q86WV6, H232R/R293Q).
T5 construct: expressed in transfected cells; host or cells: THP1-Blue ISG hSTING KO clone, retroviral MSCV-ires-GFP-Blasti
T5 sequence (Q86WV6 whole entry H232R/R293Q): as the sequence (Q86WV6 whole entry G230A/H232R/R293Q) above, with A230G counted along it
Nature of the series: IRF-inducible SEAP reporter assay in THP1-Blue ISG cells, STING R293Q-variant. It counts as cell-based. The note with it: 24 hours incubation.
From the text: as §1, §2, §3, §4, §5, §6, §7, §8, §9
Data of EC50 values on STING R293Q-variant can be found in table 2d: […]

T4 sequence (Q86WV6 whole entry, stated change not applied): as the sequence (Q86WV6 whole entry G230A/H232R/R293Q) above, with A230G, R232H, Q293R counted along it
T3 sequence (Q86WV6 whole entry H232R): as the sequence (Q86WV6 whole entry G230A/H232R/R293Q) above, with A230G, Q293R counted along it
T1 sequence (Q86WV6 whole entry R71H/G230A/H232R/R293Q): as the sequence (Q86WV6 whole entry G230A/H232R/R293Q) above, with R71H counted along it
Method for in vitro: Cellular Permeability Measurements
Caco-2 cells were obtained from Leibniz Institute DSMZ-German Collection of Microorganisms and Cell Cultures (Braunschweig, Germany) and cultured in DMEM (Dulbecco's modified Eagle medium) containing (in final concentrations) 10% FCS (fetal calf serum), 1% NEAA (non-essential amino acids), 2 mM Glutamin, 100 U/mL Penicillin and 100 μg/mL Streptomycin. Caco-2 cells were seeded either onto 24-well Transwell inserts (Corning, #3379) for bidirectional permeability assays at a density of 160,000 cells/cm^2 and cultured for 3 weeks, with media change on every second day.
For bidirectional permeability assays 10 mM DMSO stock solutions were diluted in transport buffer (final concentrations: 128.13 mM NaCl, 5.36 mM KCl, 1 mM MgSO4, 1.8 mM CaCl2, 4.17 mM NaHCO3, 1.19 mM Na2HPO4, 0.41 mM NaH2PO4, 15 mM 2-[4-(2-hydroxyethyl)piperazin-1-yl]ethanesulfonic acid (HEPES), 20 mM glucose, pH 7.4) containing 0.25% bovine serum albumin to a final concentration of 10 μM of the test compounds and added to the apical or basal compartment. Cells were incubated with the compounds for up to 2 h. Samples from the opposite compartment were taken at different timepoints.
Compound concentrations in the compartments were quantified using a RapidFire-based high-throughput HPLC/MS/MS system (high performance liquid chromatography/mass spectrometry; Bio-Cius) that was customized to a fully automated and flexible platform, termed RIAS. In this modified setup, the sample was aspirated by a vacuum pump into a 10 μL sample loop for 250 ms and flushed onto a C4 cartridge (3.8 μL bed volume; Bio-Cius) with the aqueous mobile phase (99.9% water, 0.09% formic acid, and 0.01% TFA; flow rate 1.5 mL/min). Prior to bioanalysis samples were spiked with internal standard solution and diluted with acetonitrile (ACN) for protein precipitation. Measurement was operated in multiplereaction monitoring (MRM) mode. Quantification was performed using external calibration. A solid-phase extraction step retained the analyte for 3000 ms while interfering matrix (e.g., buffer components) was removed. With a simple step gradient, the analyte was back-eluted from the cartridge for 3,000 ms with the organic mobile phase (99.9% acetonitrile/methanol [1:1, v:v], 0.09% formic acid, and 0.01% TFA) and flushed into the mass spectrometer at a flow rate of 1.25 mL/min. Afterwards, the cartridge was re-equilibrated with the aqueous mobile phase for 500 ms (flow rate 1.5 mL/min).
Apparent permeability coefficients in the apical to basal direction (Papp,AB) and in the basal to apical direction (Papp,BA) and efflux ratios were calculated as follows: Papp,AB=QAB/(C0·s·t) Papp,BA=QBA/(C0·s·t) Efflux ratio=Papp,BA/Papp,AB
where Q is the amount of compound recovered in the receiver compartment after the incubation time t, C0 the initial compound concentration given to the donor compartment, and s the surface area of the Transwell inserts. […] In addition, transepithelial electrical resistance (TEER) values are measured for each plate before the permeability assay, and total recovery in donor and receiver compartments was determined for each compound.

For `Cc1cc2c(-c3nn(-c4ccc(N5CCC(C(=O)O)CC5)nc4)c4c(C)cccc34)cccc2cn1` [Example #61, 1-{5-[7-methyl-3-(3-methylisoquinolin-5-yl)-1H-indazol-1-yl]pyridin-2-yl}piperidine-4-carboxylic acid], the EC50 is 3000 nM on STING HAQ-variant; 3000 nM on STING AQ-variant; 2900 nM at STING H232R-variant; 2900 nM at STING R232H-variant; 2200 nM on STING R293Q-variant. The compound also displayed a Papp A→B at 10 μM in the series “in vitro” of 10 ×10⁻⁶ cm/s. Further, the efflux ratio at 10 μM in “in vitro” came out at 1.1. In series [1], the “thermal shift (ΔTm)” value is listed as 16 K.

For `Cc1c(CO)ccc2c(-c3cccc4nn(C)cc34)nn(-c3ccc(N4CCC(S(C)(=O)=O)CC4)nc3)c12` [compound 75, {1-[6-(4-methanesul-fonylpiperidin-1-yl)pyridin-3-yl]-2′,7-dimethyl-1H,2′H-[3,4′-biindazol]-6-yl}meth-anol], the EC50 amounted to 100 nM at STING HAQ-variant; 100 nM at STING AQ-variant; 30 nM at STING H232R-variant; 50 nM on STING R232H-variant; 100 nM on STING R293Q-variant. In addition, the Papp A→B at 10 μM in “in vitro” came to 9 ×10⁻⁶ cm/s. For the same compound, the efflux ratio at 10 μM in the series “in vitro” was 4.8. Also, the “thermal shift (ΔTm)” value in series [1] is given as 26 K.

Regarding `Cc1cccc2c(-c3cccc4nn(C)cc34)nn(-c3ccc(N4CCC5(CC4)C(=O)N(C)C(=O)N5C)nc3)c12` [compound 9, 8-(5-{2′,7-dimethyl-1H,2′H-[3,4′-biindazol]-1-yl}pyri-din-2-yl)-1,3-dimethyl-1,3,8-triazaspiro[4.5] decane-2,4-dione], the EC50 on STING HAQ-variant came to 1000 nM; on STING AQ-variant, 700 nM; at STING H232R-variant it was 100 nM; on STING R232H-variant, 200 nM; on STING R293Q-variant, 600 nM. The Papp A→B at 10 μM in “in vitro” was 23 ×10⁻⁶ cm/s. Also, in the series “in vitro”, the efflux ratio at 10 μM amounted to 0.3. The “thermal shift (ΔTm)” value in series [1] is listed as 23 K.

`Cc1cccc2c(-c3cccc4nn(C)cc34)nn(-c3ccc(N4CCN(C(N)=O)CC4)nc3)c12` [Example #7, 4-(5-{2′,7-dimethyl-1H,2′H-[3,4′-biindazol]-1-yl}pyri-din-2-yl)piperazine-1-car-boxamide]: the EC50 at STING HAQ-variant was 800 nM; at STING AQ-variant, 600 nM; at STING H232R-variant, 200 nM; on STING R232H-variant it was 200 nM; on STING R293Q-variant it was 700 nM. Besides, the Papp A→B at 10 μM in “in vitro” turned out to be 28 ×10⁻⁶ cm/s. In the series “in vitro”, the efflux ratio at 10 μM turned out to be 0.6. Moreover, in series [1], the “thermal shift (ΔTm)” value is given as 22 K.
